# According to patent US5424303A, “Substituted aminophosphonate derivatives, process for their preparation and pharmaceutical compositions containing them” (Symphar SA, priority 1992, dated 1995):
# pIC50: −log10 of the molar value.
# Key:
# [1] = test system: plasma cholesterol; assay: Hypocholesterolemic activity, plasma cholesterol in mice fed test compound in diet; format: in vivo, OF1 strain mice; conditions: for change in vivo at 180 mg/kg/day: Mus musculus, feed or water, 240 h, read-out: Plasma Cholesterol (% Control), 0.1% compound in food, 10 days, ca. 180 mg/kg daily, mouse
# Experimental: A. Hypocholesterolemic activity
# Mouse fed a normal diet is a convenient model which was proposed by several authors (P. Olivier et al, Atherosclerosis 70, 107-114, 1988) ,for the screening for hypocholesterolemic drugs. OF1 strain mice (Iffa Credo) weighing between 25 and 35 g were divided into 5 groups of 5 animals each, four groups received the test compounds and the fifth group served as control. The test compounds were dissolved in diethyl ether. The ether solution was added to food to obtain a final concentration of 0.1%. compound in food. Ether was then evaporated at room temperature. The animals were fed for 10 days, the dally food intake corresponds to ca. 180 mg/kg. After an overnight fast, they were sacrificed by decapitation under ether anesthesia. Blood samples were collected using EDTA as anticoagulant.
# Plasma cholesterol was measured by an enzymatic test (DIAMED, Morat, Switzerland). The mean values of each group receiving the test or reference compounds were expressed as percent of mean value of the contemporary control.
# [2] = test system: lipid peroxidation (rat liver homogenate); assay: Antioxidant activity, inhibition of iron induced lipid peroxidation in liver homogenate; format: biochemical, Wistar rat; conditions: FeSO4, 37° C., 2 h; <25 μM where IC50 was not determined
# Experimental: The liver of a Wistar rat anesthetized with ether was collected and homogenized in 4 volumes of phosphate buffer (+4° C., pH 7.4) by means of a Potter. After centrifugation at 2000 rpm for 10 min the supernatant obtained was kept at +4° C. Lipid peroxidation was carried out in presence of FeSOhd according to the method described by A. T. Quitaniha et at, Ann.
# The mixture contained 1.7 ml phosphate buffer, 0.2 ml homogenate and 0.1 ml of a 2 mM FeSO4 solution. The test compounds were added in a volume of 61 μl of ethanol or DMSO. Oxydation was carried out at 37° C. for 2 h and was stopped by the addition of 20 μl of 2% ethanolic solution of BHT.
# [3] = test system: CaCo-2; format: cell-based
# Excerpt: In these two tests the positive control Lovastatin (hypocholesterolemic drug with HMGCoA reductase inhibitory activity) inhibits the enzyme and the ^14 C acetate incorporation by more than 98%. The mechanism of hypocholesterolemia of this class is different and potentially unique.
# [4] = test system: HMGCoA reductase; assay: Inhibition of the enzyme HMGCoA reductase; format: biochemical; conditions: positive control
# [5] = test system: Hep G2 cells; assay: Incorporation of 14C acetate in cholesterol synthesized by Hep G2 cells; format: cell-based; conditions: positive control
# [6] = test system: deposition of cholesterol in the arteries; conditions: hereditary atherosclerotic rabbits; cited from earlier work
# [7] = test system: xanthomas; conditions: patients suffering from familial hypercholesterolemia; cited from earlier work
Compound,change in vivo at 180 mg/kg/day [1],pIC50 [2],also measured
"CCOP(=O)(OCC)C(NCCCc1ccccc1)c1cc(C(C)(C)C)c(OC)c(C(C)(C)C)c1 (stereo not drawn) [Compound 67, Diethyl α-(3.5-di-tert-butyl-4-methoxyphenyl)-N-(3-phenylpropyl)-aminomethylphosphonate]",-22%,< 4.60,–
"CCOP(=O)(OCC)C(Cc1cc(C(C)(C)C)c(O)c(C(C)(C)C)c1)NCCCc1ccccc1 (stereo not drawn) [Compound 68, Diethyl α-(3,5-di-tert-butyl-4-hydroxybenzyl)-N-(3-phenylpropyl)-aminomethylphosphonate]",-18%,> 4.60,–
CCOP(=O)(OCC)C(NCc1ccccc1)c1ccc(O)c(OC)c1 (stereo not drawn) [Compound 70],-10%,< 4.60,–
CCOP(=O)(OCC)C(NCc1ccccc1)c1cc(OC)c(O)c(OC)c1 (stereo not drawn) [Compound 71],1%,< 4.60,–
CCOP(=O)(OCC)C(NCCc1ccccc1)c1cc(C)c(O)c(C)c1 (stereo not drawn) [Compound 72],-1%,< 4.60,–
"CCOP(=O)(OCC)C(NCCc1ccccc1)c1cc(C(C)CC)c(O)c(C(C)CC)c1 (stereo not drawn) [Compound 73, Diethyl α-(3,5 di-sec-butyl-4-hydroxyphenyl)-N-(2-phenylethyl) aminomethylphosphonate]",-40%,5.54,"decrease plasma cholesterol by ([1]; mouse, 0.1% in food, 10 days): more than 30%"
CCOP(=O)(OCC)C(NCCc1ccccc1)c1cc(C(C)C)c(O)c(C(C)C)c1 (stereo not drawn) [Compound 74],-16%,5.36,–
CCOP(=O)(OCC)C(NCCc1ccccc1)c1cc(C)c(O)c(C(C)(C)C)c1 (stereo not drawn) [Compound 75],-12%,5.32,–
CCOP(=O)(OCC)C(NCCc1ccc(Cl)cc1)c1ccc(O)cc1 (stereo not drawn) [Compound 76],-16%,< 4.60,–
CCOP(=O)(OCC)C(NCCCc1ccccc1)c1ccc(O)c([N+](=O)[O-])c1 (stereo not drawn) [Compound 77],-3%,< 4.60,–
CCOP(=O)(OCC)C(NCCCc1ccccc1)c1ccc(O)c(O)c1 (stereo not drawn) [Compound 78],-5%,> 4.60,–
CCOP(=O)(OCC)C(NCCCc1ccccc1)c1ccc(OC)cc1 (stereo not drawn) [Compound 79],9%,< 4.60,–
"CCOP(=O)(OCC)C(NCCCc1ccccc1)c1ccc2c(c1)OCO2 (stereo not drawn) [Compound 80, Diethyl α-(3,4t-methylenedioxyphenyl)-N-(3-phenylpropyl)-aminomethylphosphonate]",-29%,< 4.60,–
CC[C@H](C)C(=O)O[C@H]1C[C@@H](C)C=C2C=C[C@H](C)[C@H](CC[C@@H]3C[C@@H](O)CC(=O)O3)[C@H]21 [Lovastatin],–,–,"inhibition of 14C acetate incorporation, CaCo-2 [3]: more than 98%; inhibition of HMGCoA reductase [4]: more than 98%; inhibition of 14C acetate incorporation, Hep G2 [5]: more than 98%"
CC(C)(Sc1cc(C(C)(C)C)c(O)c(C(C)(C)C)c1)Sc1cc(C(C)(C)C)c(O)c(C(C)(C)C)c1 [Probucol],–,< 4.60,effect on deposition of cholesterol in the arteries (in words) [6]: prevents the deposition of cholesterol in the arteries; effect on xanthomas (in words) [7]: induces the regression of xanthomas
